Consider 17 compounds from US20260356840A1, “[1,2,4]TRIAZOLO[1,5-A]PYRIMIDINONE WRN INHIBITORS” (Nimbus Wadjet, Inc., priority 2023, published 2026).

The target of the assay is T1, human Werner helicase (Uniprot Q14191, amino acids 517-1235 with L1074F point mutation), WRN-BV08 (Homo sapiens, UniProt Q14191, L1074F).
T1 construct: Uniprot Q14191, amino acids 517-1235 with L1074F point mutation; TEV cleavable 8xHis tag (C, cleaved yes); made in house; host or cells: Sf9 insect cells (baculovirus, pFastBac)
T1 sequence (Q14191 517-1235 L1074F): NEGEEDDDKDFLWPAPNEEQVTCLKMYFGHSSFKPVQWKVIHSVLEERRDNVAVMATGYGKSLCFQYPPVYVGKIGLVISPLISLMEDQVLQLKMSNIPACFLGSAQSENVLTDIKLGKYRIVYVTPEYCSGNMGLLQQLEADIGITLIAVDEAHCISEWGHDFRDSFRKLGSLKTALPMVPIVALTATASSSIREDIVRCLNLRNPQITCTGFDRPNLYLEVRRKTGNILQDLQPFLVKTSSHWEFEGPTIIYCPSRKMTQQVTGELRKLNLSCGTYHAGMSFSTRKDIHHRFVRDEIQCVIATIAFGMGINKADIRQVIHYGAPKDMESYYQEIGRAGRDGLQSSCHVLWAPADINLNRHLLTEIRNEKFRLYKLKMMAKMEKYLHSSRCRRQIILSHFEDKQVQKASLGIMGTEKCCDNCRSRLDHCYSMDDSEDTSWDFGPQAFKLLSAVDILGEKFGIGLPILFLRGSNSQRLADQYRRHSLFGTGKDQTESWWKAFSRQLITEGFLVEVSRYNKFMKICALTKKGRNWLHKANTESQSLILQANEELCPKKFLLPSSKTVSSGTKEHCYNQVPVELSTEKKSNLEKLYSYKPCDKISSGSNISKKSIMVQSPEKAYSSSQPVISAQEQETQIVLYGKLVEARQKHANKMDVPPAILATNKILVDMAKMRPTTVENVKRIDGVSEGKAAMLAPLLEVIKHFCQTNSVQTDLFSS
The assay can be described thus: WRN (BV08) ADP-Glo Assay. The class given is biochemical. On the procedure:
DNA duplex was synthesized at BGI (Shenzhen, China) and was composed of strand 1 with the sequence 5′-[…]-3′ (SEQ ID NO.: 1) and strand 2 with the sequence 5′-[…]-3′ (SEQ ID NO.: 2). DNA strands were annealed by heating to 95 °C for 5 minutes followed by slow cooling to room temperature. […] DMSO (0.1 μl) was added to columns 12, rows A-H and column 24, rows I-P for the maximum signal control.
Where RLU=relative luminescence units, sample=signal in sample well, and MIN and MAX are the respective minimum and maximum signal controls. • Four-parameter IC50 fit equation:
Y=Bottom+(Top−Bottom)/(1+(IC50/X)^Hill Slope)
Where top and bottom are normally allowed to float but may be fixed at 100 or 0 respectively in a 3-parameter fit. Y is the % inhibition and X is the compound concentration.
Molecular Biology and virus production. […] The baculovirus from the expression plasmid WRN-BV08 was generated from transfection and amplification following the manufacturer's instructions.
Sf9 cells grown in SF900II media were infected with 1:200 WRN-BV08 P2 virus and incubated for protein expression for 72 h at 27 °C. The WRN protein was purified using the following protocol. The cell pellets were thawed and resuspended in buffer A (50 mM Tris, pH 7.5, 500 mM NaCl, 1 mM TCEP, 10% Glycerol) supplemented with 0.5% CHAPS, 1 mM [COMPOUND LEFT OUT], 1 μg/ml Leupeptin, 1 μg/ml Pepstatin, and the Pierce Universal Nuclease and cocktail tablet. Cleared lysates were loaded onto a Ni Sepharose™ excel column and washed with buffer A and bound protein was eluted with buffer A supplemented with 300 mM imidazole. The eluted protein was dialyzed against buffer A and digested by His-tagged TEV (1:5 ratio) overnight at 4 °C. […] Untagged WRN protein was eluted from the column with buffer A supplemented with 20 mM imidazole, dialyzed overnight into buffer B (50 mM Tris, pH 7.5, 1 mM TCEP, 10% Glycerol) supplemented with 150 mM NaCl and loaded onto a Heparin column. Proteins were eluted with a step gradient of buffer B supplemented with 150 mM, 200 mM, 300 mM and 500 mM NaCl.
A general note: ADP-Glo turns the ADP formed in a reaction into a luminescent signal.
In general, IC50 refers to the concentration at which inhibition is half-maximal. A lower IC50 goes with inhibition by little substance. `CCc1c(N2CCN(C(=O)c3c(O)cccc3F)CC2)c(=O)n2nc(C3=CCOCC3)nc2n1CC(=O)Nc1ccc(C(F)(F)F)cc1Cl` [Compound I-1, N-[2-chloro-4-(trifluoromethyl)phenyl]-2-[2-(3,6-dihydro-2H-pyran-4-yl)-5-ethyl-6-[4-(2-fluoro-6-hydroxybenzoyl)piperazin-1-yl]-7-oxo-4H,7H-[1,2,4]triazolo[1,5-a]pyrimidin-4-yl]acetamide] had an IC50 of 5 to 50 nM.

`CCc1c(N2CCN(C(=O)c3cnc(C)cc3O)CC2)c(=O)n2nc(C3=CCOCC3)nc2n1CC(=O)Nc1ccc(C(F)(F)F)cc1Cl` [Compound I-2, N-[2-chloro-4-(trifluoromethyl)phenyl]-2-[2-(3,6-dihydro-2H-pyran-4-yl)-5-ethyl-6-[4-(4-hydroxy-6-methylpyridine-3-carbonyl)piperazin-1-yl]-7-oxo-4H,7H-[1,2,4]triazolo[1,5-a]pyrimidin-4-yl]acetamide] returned a half-maximal inhibitory concentration (IC50) of 5 to 50 nM. The result for `CCc1c(N2CCN(C(=O)c3cccc(C)c3O)CC2)c(=O)n2nc(C3=CCOCC3)nc2n1CC(=O)Nc1ccc(C(F)(F)F)cc1Cl` [Compound I-3, N-[2-chloro-4-(trifluoromethyl)phenyl]-2-[2-(3,6-dihydro-2H-pyran-4-yl)-5-ethyl-6-[4-(2-hydroxy-3-methylbenzoyl)piperazin-1-yl]-7-oxo-4H,7H-[1,2,4]triazolo[1,5-a]pyrimidin-4-yl]acetamide] reads 5 to 50 nM. The result for `CCc1c(N2CCN(C(=O)c3c(O)cccc3OC)CC2)c(=O)n2nc(C3=CCOCC3)nc2n1CC(=O)Nc1ccc(C(F)(F)F)cc1Cl` [Compound I-4, N-[2-chloro-4-(trifluoromethyl)phenyl]-2-[2-(3,6-dihydro-2H-pyran-4-yl)-5-ethyl-6-[4-(2-hydroxy-6-methoxybenzoyl)piperazin-1-yl]-7-oxo-4H,7H-[1,2,4]triazolo[1,5-a]pyrimidin-4-yl]acetamide] reads 5 to 50 nM; that for `CCc1c(N2CCN(C(=O)c3ccnc(C)c3O)CC2)c(=O)n2nc(C3=CCOCC3)nc2n1CC(=O)Nc1ccc(C(F)(F)F)cc1Cl` [Compound I-5, N-[2-chloro-4-(trifluoromethyl)phenyl]-2-[2-(3,6-dihydro-2H-pyran-4-yl)-5-ethyl-6-[4-(3-hydroxy-2-methylpyridine-4-carbonyl)piperazin-1-yl]-7-oxo-4H,7H-[1,2,4]triazolo[1,5-a]pyrimidin-4-yl]acetamide], 5 to 50 nM; that for `CCc1c(N2CCN(C(=O)c3sccc3O)CC2)c(=O)n2nc(C3=CCOCC3)nc2n1CC(=O)Nc1ccc(C(F)(F)F)cc1Cl` [Compound I-6, N-[2-chloro-4-(trifluoromethyl)phenyl]-2-[2-(3,6-dihydro-2H-pyran-4-yl)-5-ethyl-6-[4-(3-hydroxythiophene-2-carbonyl)piperazin-1-yl]-7-oxo-4H,7H-[1,2,4]triazolo[1,5-a]pyrimidin-4-yl]acetamide], 5 to 50 nM. The result for `CCc1c(N2CCN(C(=O)c3sc(C(F)(F)F)cc3O)CC2)c(=O)n2nc(C3=CCOCC3)nc2n1CC(=O)Nc1ccc(C(F)(F)F)cc1Cl` [Compound I-7, N-[2-chloro-4-(trifluoromethyl)phenyl]-2-[2-(3,6-dihydro-2H-pyran-4-yl)-5-ethyl-6-{4-[3-hydroxy-5-(trifluoromethyl)thiophene-2-carbonyl]piperazin-1-yl}-7-oxo-4H,7H-[1,2,4]triazolo[1,5-a]pyrimidin-4-yl]acetamide] reads 5 to 50 nM; that for `CCc1c(N2CC3CN(C(=O)c4ncnc(C)c4O)CC3C2)c(=O)n2nc(C3=CCOCC3)nc2n1CC(=O)Nc1ccc(C(F)(F)F)cc1Cl` (centres unmarked) [Compound I-8, N-[2-chloro-4-(trifluoromethyl)phenyl]-2-[2-(3,6-dihydro-2H-pyran-4-yl)-5-ethyl-6-[5-(5-hydroxy-6-methylpyrimidine-4-carbonyl)-octahydropyrrolo[3,4-c]pyrrol-2-yl]-7-oxo-4H,7H-[1,2,4]triazolo[1,5-a]pyrimidin-4-yl]acetamide], 5 to 50 nM; that for `CCc1c(N2CCN(C(=O)c3c(O)cncc3F)CC2)c(=O)n2nc(C3=CCOCC3)nc2n1CC(=O)Nc1ccc(C(F)(F)F)cc1Cl` [Compound I-9, N-[2-chloro-4-(trifluoromethyl)phenyl]-2-[2-(3,6-dihydro-2H-pyran-4-yl)-5-ethyl-6-[4-(3-fluoro-5-hydroxypyridine-4-carbonyl)piperazin-1-yl]-7-oxo-4H,7H-[1,2,4]triazolo[1,5-a]pyrimidin-4-yl]acetamide], 5 to 50 nM. `CCc1c(N2CCN(C(=O)c3c(F)cccc3F)CC2)c(=O)n2nc(C3=CCOCC3)nc2n1CC(=O)Nc1ccc(C(F)(F)F)cc1Cl` [Compound I-10, N-[2-chloro-4-(trifluoromethyl)phenyl]-2-{6-[4-(2,6-difluorobenzoyl)piperazin-1-yl]-2-(3,6-dihydro-2H-pyran-4-yl)-5-ethyl-7-oxo-4H,7H-[1,2,4]triazolo[1,5-a]pyrimidin-4-yl}acetamide]: the IC50 lay within 5 to 50 nM. Turning to `CCc1c(N2CCN(C(=O)c3cn(C)[nH]c3=O)CC2)c(=O)n2nc(C3=CCOCC3)nc2n1CC(=O)Nc1ccc(C(F)(F)F)cc1Cl` [Compound I-11, N-[2-chloro-4-(trifluoromethyl)phenyl]-2-[2-(3,6-dihydro-2H-pyran-4-yl)-5-ethyl-6-[4-(3-hydroxy-1-methyl-1H-pyrazole-4-carbonyl)piperazin-1-yl]-7-oxo-4H,7H-[1,2,4]triazolo[1,5-a]pyrimidin-4-yl]acetamide], the IC50 is under 5 nM. `CCc1c(N2CCN(C(=O)c3nn(C)cc3O)CC2)c(=O)n2nc(C3=CCOCC3)nc2n1CC(=O)Nc1ccc(C(F)(F)F)cc1Cl` [Compound I-12, N-[2-chloro-4-(trifluoromethyl)phenyl]-2-[2-(3,6-dihydro-2H-pyran-4-yl)-5-ethyl-6-[4-(4-hydroxy-1-methyl-1H-pyrazole-3-carbonyl)piperazin-1-yl]-7-oxo-4H,7H-[1,2,4]triazolo[1,5-a]pyrimidin-4-yl]acetamide] gave an IC50 of 5 to 50 nM. With `CCc1c(N2CCN(C(=O)c3c(C)cnc(C)c3O)CC2)c(=O)n2nc(C3=CCOCC3)nc2n1CC(=O)Nc1ccc(C(F)(F)F)cc1Cl` [Compound I-13, N-[2-chloro-4-(trifluoromethyl)phenyl]-2-[2-(3,6-dihydro-2H-pyran-4-yl)-5-ethyl-6-[4-(3-hydroxy-2,5-dimethylpyridine-4-carbonyl)piperazin-1-yl]-7-oxo-4H,7H-[1,2,4]triazolo[1,5-a]pyrimidin-4-yl]acetamide] the figure was 5 to 50 nM; with `CCc1c(N2CCN(C(=O)c3cccc4cn[nH]c34)CC2)c(=O)n2nc(C3=CCOCC3)nc2n1CC(=O)Nc1ccc(C(F)(F)F)cc1Cl` [Compound I-14, N-[2-chloro-4-(trifluoromethyl)phenyl]-2-[2-(3,6-dihydro-2H-pyran-4-yl)-5-ethyl-6-[4-(1H-indazole-7-carbonyl)piperazin-1-yl]-7-oxo-4H,7H-[1,2,4]triazolo[1,5-a]pyrimidin-4-yl]acetamide], under 5 nM; with `CCc1c(N2CCN(C(C)=O)CC2)c(=O)n2nc(C3=CCOCC3)nc2n1CC(=O)Nc1ccc(C(F)(F)F)cc1Cl` [Compound I-16, 2-[6-(4-acetylpiperazin-1-yl)-2-(3,6-dihydro-2H-pyran-4-yl)-5-ethyl-7-oxo-4H,7H-[1,2,4]triazolo[1,5-a]pyrimidin-4-yl]-N-[2-chloro-4-(trifluoromethyl)phenyl]acetamide], 5 to 50 nM. The result for `CCc1c(N2CCN(C(=O)c3nnn[nH]3)CC2)c(=O)n2nc(C3=CCOCC3)nc2n1CC(=O)Nc1ccc(C(F)(F)F)cc1Cl` [Compound I-17, N-[2-chloro-4-(trifluoromethyl)phenyl]-2-[2-(3,6-dihydro-2H-pyran-4-yl)-5-ethyl-7-oxo-6-[4-(1H-1,2,3,4-tetrazole-5-carbonyl)piperazin-1-yl]-4H,7H-[1,2,4]triazolo[1,5-a]pyrimidin-4-yl]acetamide] reads 5 to 50 nM. With `CCc1c(N2CCN(C(=O)C(C)(C)O)CC2)c(=O)n2nc(C3=CCOCC3)nc2n1CC(=O)Nc1ccc(C(F)(F)F)cc1Cl` [Compound I-18, N-[2-chloro-4-(trifluoromethyl)phenyl]-2-[2-(3,6-dihydro-2H-pyran-4-yl)-5-ethyl-6-[4-(2-hydroxy-2-methylpropanoyl)piperazin-1-yl]-7-oxo-4H,7H-[1,2,4]triazolo[1,5-a]pyrimidin-4-yl]acetamide] the figure was 50 to 100 nM.
